Test results from patent US9434610B2, “HPMA—docetaxel conjugates and uses therefore” (REXAHN PHARMACEUTICALS, INC., priority 2008, dated 2016).
pKd: −log10 of the molar value.

Assays:
PANC-1 (pancreas) = test: In vitro cell proliferation (SRB) assay, PANC-1; format: cell-based; conditions: Homo sapiens, 96 hours, drug equivalent
Procedure: (§1) Cancer cell lines to determine the effect of HPMA-drug conjugates were obtained from the following sources: Human MDA-MB-231 (breast), HCT116 (colon) and PANC-1 (pancreas), from the American Type Culture Collection (ATCC) (Manassas, Va.). UMRC2 (kidney) from United States National Cancer Institute (Bethesda, Md.). Cells were maintained in Dulbecco's modified Eagle's medium (“DMEM”, Invitrogen) supplemented with 10% FBS, P/S and 10 mM HEPES. All cells were incubated at 37° C. under humidified 5% CO2.
(§2) The growth inhibition assay of HPMA-drug conjugates against human cancer cell lines was performed using the Sulforhodamine B (“SRB”) method (Skehan et al., J. National Cancer Institute, 82: 1107-1112 (1990)). […] After 5 minutes agitation in 10 mM Tris solution, the absorbance of each well was measured at 530 nm using Benchmark Plus Microplate reader (Bio-Rad Laboratories, Hercules, Calif.). The absorbance value provides a direct measure of the number of live cells post-treatment with HPMA copolymer-drug conjugates.
(§3) To translate the OD530 values into the number of live cells in each well, the OD530 values were compared to those on standard OD530-versus-cell number curves generated for each cell line. The percent survival was calculated using the formula: % Survival=live cell number[test]/live cell number[control]×100
(§4) The IC50 values were calculated by non-linear regression analysis.

MDA-MB-231 (breast) = test: In vitro cell proliferation (SRB) assay, MDA-MB-231; format: cell-based; conditions: Homo sapiens, 96 hours, drug equivalent
Procedure: as §1, §2, §3, §4

UMRC2 (kidney) = test: In vitro cell proliferation (SRB) assay, UMRC2; format: cell-based; conditions: Homo sapiens, 96 hours, drug equivalent
Procedure: as §1, §2, §3, §4

HCT116 (colon) = test: In vitro cell proliferation (SRB) assay, HCT116; format: cell-based; conditions: Homo sapiens, HCT-116, 96 hours, drug equivalent
Procedure: as §1, §2, §3, §4

reduced folate carrier = target: T1, reduced folate carrier (Homo sapiens, UniProt P41440); conditions: low affinity reduced folate carrier, cellular uptake; cited from earlier work
T1 sequence (P41440 1-591): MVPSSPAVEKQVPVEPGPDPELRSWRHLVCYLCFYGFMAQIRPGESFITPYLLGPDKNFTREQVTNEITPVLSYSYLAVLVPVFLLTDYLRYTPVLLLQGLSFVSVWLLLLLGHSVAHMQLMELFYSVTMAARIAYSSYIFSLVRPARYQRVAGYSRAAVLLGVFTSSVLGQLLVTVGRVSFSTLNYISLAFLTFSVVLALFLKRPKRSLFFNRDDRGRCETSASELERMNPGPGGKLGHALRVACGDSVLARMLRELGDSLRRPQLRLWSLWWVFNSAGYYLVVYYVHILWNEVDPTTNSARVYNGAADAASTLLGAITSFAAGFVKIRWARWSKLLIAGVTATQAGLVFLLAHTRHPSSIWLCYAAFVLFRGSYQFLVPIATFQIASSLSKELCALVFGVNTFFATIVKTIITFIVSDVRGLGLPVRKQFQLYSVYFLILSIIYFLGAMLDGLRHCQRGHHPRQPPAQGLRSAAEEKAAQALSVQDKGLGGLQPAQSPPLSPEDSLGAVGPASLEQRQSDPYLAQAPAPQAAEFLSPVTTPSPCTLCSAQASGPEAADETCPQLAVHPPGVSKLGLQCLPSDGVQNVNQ

[1] = target: glycosylphosphatidylinositol-linked folate receptor (FR); conditions: high affinity folate receptor; cited from earlier work
mucin-1 = mucin-1 (Homo sapiens, UniProt P15941); conditions: specific ligand of mucin-1; cited from earlier work
Sequence of mucin-1 (P15941 24-1255): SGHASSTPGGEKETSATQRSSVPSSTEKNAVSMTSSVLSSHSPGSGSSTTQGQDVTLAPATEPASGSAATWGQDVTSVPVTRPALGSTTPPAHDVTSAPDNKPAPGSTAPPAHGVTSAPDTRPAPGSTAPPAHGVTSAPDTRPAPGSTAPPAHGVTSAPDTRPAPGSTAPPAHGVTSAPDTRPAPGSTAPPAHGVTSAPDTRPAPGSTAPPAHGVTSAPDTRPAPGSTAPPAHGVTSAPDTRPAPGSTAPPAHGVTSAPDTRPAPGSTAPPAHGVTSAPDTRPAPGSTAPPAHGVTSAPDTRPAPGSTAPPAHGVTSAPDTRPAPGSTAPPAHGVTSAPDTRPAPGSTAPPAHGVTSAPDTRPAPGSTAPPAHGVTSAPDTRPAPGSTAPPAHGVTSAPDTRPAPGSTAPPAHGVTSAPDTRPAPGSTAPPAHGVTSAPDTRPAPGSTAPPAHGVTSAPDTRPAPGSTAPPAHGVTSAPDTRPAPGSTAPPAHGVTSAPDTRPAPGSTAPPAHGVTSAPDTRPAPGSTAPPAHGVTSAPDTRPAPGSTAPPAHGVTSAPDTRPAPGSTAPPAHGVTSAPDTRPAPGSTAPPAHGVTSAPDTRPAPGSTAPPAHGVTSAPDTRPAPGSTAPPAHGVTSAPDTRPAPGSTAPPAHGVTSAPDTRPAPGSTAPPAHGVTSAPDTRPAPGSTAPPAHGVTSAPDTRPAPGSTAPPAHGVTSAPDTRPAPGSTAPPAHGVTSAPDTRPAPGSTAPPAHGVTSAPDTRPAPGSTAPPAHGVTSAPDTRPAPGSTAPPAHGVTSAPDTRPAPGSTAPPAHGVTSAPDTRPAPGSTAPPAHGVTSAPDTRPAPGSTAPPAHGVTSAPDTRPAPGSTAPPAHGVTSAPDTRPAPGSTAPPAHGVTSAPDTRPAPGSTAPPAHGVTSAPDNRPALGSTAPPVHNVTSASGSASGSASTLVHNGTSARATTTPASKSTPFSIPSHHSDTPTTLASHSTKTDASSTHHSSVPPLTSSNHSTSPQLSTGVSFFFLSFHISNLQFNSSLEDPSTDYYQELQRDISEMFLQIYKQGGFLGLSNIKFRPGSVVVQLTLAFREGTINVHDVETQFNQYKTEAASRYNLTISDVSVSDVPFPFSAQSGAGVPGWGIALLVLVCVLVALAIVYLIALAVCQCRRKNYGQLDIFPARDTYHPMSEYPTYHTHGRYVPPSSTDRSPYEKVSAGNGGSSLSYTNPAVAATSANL

Row | Compound | IC50 (PANC-1 (pancreas)) [µM] | IC50 (MDA-MB-231 (breast)) [µM] | IC50 (UMRC2 (kidney)) [µM] | IC50 (HCT116 (colon)) [µM] | Km (reduced folate carrier) [µM] | pKd [1] | pKd (mucin-1)
1 | CC(=O)O[C@@]12CO[C@@H]1C[C@H](O)[C@@]1(C)C(=O)[C@H](O)C3=C(C)[C@@H](OC(=O)[C@H](O)[C@@H](NC(=O)OC(C)(C)C)c4ccccc4)C[C@@](O)([C@@H](OC(=O)c4ccccc4)[C@H]21)C3(C)C [Docetaxel] | 0.0012 | 0.00077 | 0.026 | 0.00055 |  |  | 
2 | Nc1ccn([C@@H]2O[C@H](CO)[C@@H](O)C2(F)F)c(=O)n1 [Gemcitabine] | 0.59 | 0.22 | 0.29 | 0.056 |  |  | 
3 | Nc1nc2ncc(CNc3ccc(C(=O)N[C@@H](CCC(=O)O)C(=O)O)cc3)nc2c(=O)[nH]1 [folates, Folic acid] |  |  |  |  | ~1 | ~10.00 | 
4 | synthetic peptide YCAREPPTRTFAYWG (SEQ ID NO: 9), specific ligand of mucin-1 [EPPT1] |  |  |  |  |  |  | 4.70
